Measurements published in US20230348426A1, “OXOPYRROLIDINE FPR2 AGONISTS” (Bristol-Myers Squibb Company, priority 2020, published 2023).

Experiments:
[1] = target: human FPR2 (Homo sapiens (Human), UniProt P25090); assay: FPR2 cyclic adenosine monophosphate (cAMP) assay; type: cell-based; settings: CHO cells overexpressing human FPR2; forskolin 5 µM; inhibition of cAMP production; read-out: hFPR2 cAMP2 EC50
Outline: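 Inhibition of forskolin-driven (5 µM) cAMP, with 200 µM IBMX, measured in human FPR2-expressing CHO cells, 2,000 per well, 30 min at room temperature; compounds tested 0.020 nM to 100 µM in 1% DMSO. HTRF 665/590 ratio converted to cAMP via calibration curve, then 4-parameter fit.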

[2] = target: human FPR1 (Homo sapiens (Human), UniProt P21462); assay: FPR1 cyclic adenosine monophosphate (cAMP) assay; type: cell-based; settings: CHO cells overexpressing human FPR1; forskolin 10 µM; inhibition of cAMP production; read-out: hFPR1 cAMP EC50
Sequence of human FPR1 (P21462 whole entry): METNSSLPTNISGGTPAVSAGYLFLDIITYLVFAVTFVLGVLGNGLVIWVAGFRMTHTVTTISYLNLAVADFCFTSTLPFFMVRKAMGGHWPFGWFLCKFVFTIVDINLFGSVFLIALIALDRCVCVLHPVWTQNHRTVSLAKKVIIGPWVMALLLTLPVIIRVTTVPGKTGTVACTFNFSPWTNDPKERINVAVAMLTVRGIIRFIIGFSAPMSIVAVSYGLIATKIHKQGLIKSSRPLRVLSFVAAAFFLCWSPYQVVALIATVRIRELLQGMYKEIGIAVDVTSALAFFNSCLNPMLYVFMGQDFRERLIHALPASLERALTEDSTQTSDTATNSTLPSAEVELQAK
Outline: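 Human FPR1-expressing CHO cells were used at 4,000 per well, with compound at 0.020 nM–100 µM in 1% DMSO. Potency came from a 4-parameter logistic fit.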

Sequence of human FPR2 (P25090 whole entry): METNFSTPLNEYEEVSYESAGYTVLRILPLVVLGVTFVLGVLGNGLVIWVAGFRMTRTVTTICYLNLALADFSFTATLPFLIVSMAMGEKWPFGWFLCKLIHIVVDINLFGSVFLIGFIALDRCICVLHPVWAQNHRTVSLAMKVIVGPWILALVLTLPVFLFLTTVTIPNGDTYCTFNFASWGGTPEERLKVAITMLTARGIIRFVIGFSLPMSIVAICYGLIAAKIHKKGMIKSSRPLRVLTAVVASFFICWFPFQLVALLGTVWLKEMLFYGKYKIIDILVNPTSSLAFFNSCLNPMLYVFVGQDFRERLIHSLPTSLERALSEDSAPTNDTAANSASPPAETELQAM

Row | SMILES | EC50 [1] | EC50 [2]
1 | COCC(C(=O)N(C)C)n1ccc(C)c(N2C[C@@H](c3c(F)cc(OC)cc3F)[C@H](NC(=O)c3ccc(OC(F)F)cc3)C2=O)c1=O (stereo partly drawn) [Example 257] | 7.3 nM | 1.6 nM
2 | CCn1cc(F)cc(N2C[C@@H](c3c(F)cc(OC)cc3F)[C@H](NC(=O)c3ccc(OC(F)F)cc3)C2=O)c1=O [Example 205] | 5.4 nM | 220 nM
3 | COc1cc(F)c([C@@H]2CN(c3cccn(C(F)F)c3=O)C(=O)[C@H]2NC(=O)c2ccc(OC(F)F)cc2)c(F)c1 [Example 52] | 1.3 nM | 27 nM
4 | COc1cc(F)c([C@@H]2CN(c3c(C)ccn(CC4CCO4)c3=O)C(=O)[C@H]2NC(=O)c2ccc(Cl)cc2)c(F)c1 (stereo partly drawn) [Example 618] | 1 nM | 9.5 nM
5 | COc1cc(F)c([C@@H]2CN(c3cc(C(F)(F)F)cn(C)c3=O)C(=O)[C@H]2NC(=O)c2ccc(Cl)cc2)c(F)c1 [Example 238] | 6.6 nM | 1500 nM
6 | COc1ccc([C@@H]2CN(c3cccn(CC(C)O)c3=O)C(=O)[C@H]2NC(=O)c2ccc(OC(F)F)cc2)cc1 (stereo partly drawn) [Example 434] | 4.4 nM | 10 nM
7 | COc1cc(F)c([C@@H]2CN(c3c(C)ccn(C4CCS(=O)(=O)CC4)c3=O)C(=O)[C@H]2NC(=O)c2ccc(OC(F)(F)F)cc2)c(F)c1 [Example 627] | 8.6 nM | 2 nM
8 | COc1cc(F)c([C@H]2[C@H](NC(=O)c3ccc(OC(F)F)cc3)C(=O)N(c3cccc(P(C)(C)=O)n3)[C@H]2C)c(F)c1 [Example 505] | 100 nM | 3400 nM
9 | COc1cc(F)c([C@@H]2CN(c3cccn(CCN4CCOCC4)c3=O)C(=O)[C@H]2NC(=O)c2ccc(OC(F)(F)F)cc2)c(F)c1 [Example 278] | 8.1 nM | 340 nM
10 | COc1cc(F)c([C@H]2[C@H](NC(=O)c3ccc(OC(F)F)cc3)C(=O)N(c3cccc(C4CCNCC4)n3)[C@H]2C)c(F)c1 [Example 528] | 0.2 nM | 600 nM
11 | COc1cc(F)c([C@@H]2CN(c3cccn(CC(O)CO)c3=O)C(=O)[C@H]2NC(=O)c2ccc(OC(F)F)cc2)c(F)c1 (stereo partly drawn) [Example 681] | 10 nM | 1000 nM
12 | COc1cc(F)c([C@@H]2CN(c3nc(N4CCN(C)CC4)ccc3OC)C(=O)[C@H]2NC(=O)c2ccc(OC(F)F)cc2)c(F)c1 [Example 303] | 9.6 nM | 390 nM
13 | COCC(CN)n1cccc(N2C[C@@H](c3c(F)cc(OC)cc3F)[C@H](NC(=O)c3ccc(OC(F)(F)F)cc3)C2=O)c1=O (stereo partly drawn) [Example 194] | 5.1 nM | 150 nM
14 | COc1cc(F)c([C@@H]2CN(c3c(C)ccn(C(F)(F)CO)c3=O)C(=O)[C@H]2NC(=O)c2ccc(OC(F)(F)F)cc2)c(F)c1 [Example 490] | 1 nM | 1 nM
15 | COc1cc(F)c([C@H]2[C@H](NC(=O)c3ccc(Cl)cc3)C(=O)N(c3nccn(CC(F)F)c3=O)[C@@H]2C)c(F)c1 [Example 554] | 4.3 nM | 2400 nM
16 | COc1cc(F)c([C@@H]2CN(c3cccn(CC(O)C(F)(F)F)c3=O)C(=O)[C@H]2NC(=O)c2ccc(OC(F)(F)F)cc2)c(F)c1 (stereo partly drawn) [Example 47] | 1.1 nM | 150 nM
17 | COc1cc(F)c([C@@H]2CN(c3cncn(C4CCN(C)C4)c3=O)C(=O)[C@H]2NC(=O)c2ccc(Cl)cc2)c(F)c1 (stereo partly drawn) [Example 721] | 5.6 nM | > 5000 nM
18 | COc1cc(F)c([C@@H]2CN(c3c(C(F)(F)F)ccn(C)c3=O)C(=O)[C@H]2NC(=O)c2ccc(OC(F)F)cc2)c(F)c1 [Example 311] | 10 nM | 1900 nM
19 | COc1cc(F)c([C@@H]2CN(c3cccc(=O)n3C)C(=O)[C@H]2NC(=O)c2ccc(OC(F)(F)F)cc2)c(F)c1 [Example 11] | 31 nM | 86 nM
20 | COc1cc(F)c([C@@H]2CN(c3cc(C)cn(C)c3=O)C(=O)[C@H]2NC(=O)c2ccc(OC(F)F)cc2)c(F)c1 [Example 244] | 6.8 nM | 950 nM
21 | COCCNc1ccnc(N2C[C@@H](c3c(F)cc(OC)cc3F)[C@H](NC(=O)c3ccc(Cl)cc3)C2=O)c1C(F)(F)F [Example 423] | 4.7 nM | 1100 nM
22 | COc1cc(F)c([C@@H]2CN(c3c(C)ncn(CC4(C)COC4)c3=O)C(=O)[C@H]2NC(=O)c2ccc(Cl)cc2)c(F)c1 [Example 522] | 5.4 nM | > 5000 nM
23 | COCCn1c2c(cc(N3C[C@@H](c4c(F)cc(OC)cc4F)[C@H](NC(=O)c4ccc(Cl)cc4)C3=O)c1=O)CCCC2 [Example 461] | 3.7 nM | 3 nM
24 | COc1cc(F)c([C@@H]2CN(c3cccn(C4CCOC4)c3=O)C(=O)[C@H]2NC(=O)c2ccc(OC(F)(F)F)cc2)c(F)c1 (stereo partly drawn) [Example 298] | 9 nM | 8.5 nM
